Data: PubChem BioAssay (NCI)
Values joined by “and” are separate entries in the source; they are usually repeats but may differ in a detail not shown here. Equal entries are not always repeated.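 Test compounds were applied to cells in 96-well plates for 48 hours at 5 doses. GI50 is the concentration that inhibits growth by half. TGI denotes the concentration required for complete inhibition of growth.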

Legend:
Assay in all cases: inhibition of tumour cell growth, NCI panel, 48 h
SNB-19 CNS = system: SNB-19 CNS
HCT-15 colon = system: HCT-15 colon
NCI-H226 lung = system: NCI-H226 lung
NCI-H23 lung = system: NCI-H23 lung
SN12C renal = system: SN12C renal
SNB-75 CNS = system: SNB-75 CNS
PC-3 prostate = system: PC-3 prostate
SW-620 colon = system: SW-620 colon
HCT-116 colon = system: HCT-116 colon
SK-MEL-2 melanoma = system: SK-MEL-2 melanoma

| SMILES | GI50 (SNB-19 CNS) | TGI (SNB-19 CNS) | GI50 (HCT-15 colon) | TGI (HCT-15 colon) | GI50 (NCI-H226 lung) [µM] | TGI (NCI-H226 lung) | GI50 (NCI-H23 lung) | TGI (NCI-H23 lung) | GI50 (SN12C renal) [µM] | TGI (SN12C renal) | GI50 (SNB-75 CNS) [µM] | TGI (SNB-75 CNS) | GI50 (PC-3 prostate) [µM] | TGI (PC-3 prostate) | GI50 (SW-620 colon) [µM] | TGI (SW-620 colon) | GI50 (HCT-116 colon) | TGI (HCT-116 colon) | GI50 (SK-MEL-2 melanoma) [µM] | TGI (SK-MEL-2 melanoma) [µM] |
| --- | --- | --- | --- | --- | --- | --- | --- | --- | --- | --- | --- | --- | --- | --- | --- | --- | --- | --- | --- | --- |
| CCn1nc(C#Cc2c(C)ccc3c(Nc4ccc(Cl)cc4)nccc23)c2c(N)ncnc21 | 4.93 µM | > 100 µM | 3.46 µM | > 100 µM | 3.29 | 12.9 µM | 3.58 µM | > 100 µM | 3.84 | > 100 µM | 3.12 | 44 µM | 3.03 | > 100 µM | 2.99 | > 100 µM | 2.11 µM | > 100 µM | 1.92 | 6.53 |
| COc1cc(-c2nn(-c3cccc(NC(=O)NCCNC(=O)c4ccccc4)c3)cc2-c2ccncc2)ccc1Cl | 4.83 µM | > 100 µM | 1.97 µM | > 100 µM | 2.73 | 83.4 µM | 3.37 µM | > 100 µM | 0.556 | > 100 µM | 5.84 | > 100 µM | 2.4 | > 100 µM | 0.824 | > 100 µM | 0.392 µM | > 100 µM | 2.34 | 5.43 |
| Cc1ccccc1C1N=C2Oc3ccccc3C=C2C(=O)N1 (stereo not given) | > 42.9 µM | > 100 µM | 2.05 µM | > 100 µM | > 100 | > 100 µM | 2.5 µM | > 100 µM | 8.33 | > 100 µM | 1.51 | > 100 µM | 0.86 | > 100 µM | 4.74 | > 100 µM | 6.37 µM | > 100 µM | 0.535 | > 100 |
| CNC(=S)N/N=C/CSC/C=N/NC(=S)NC | > 100 µM | > 100 µM | 34.5 µM | > 100 µM | > 100 | > 100 µM | > 100 µM | > 100 µM | > 100 | > 100 µM | > 100 | > 100 µM | > 100 | > 100 µM | 41.1 | > 100 µM | 8.33 µM | > 100 µM | > 100 | > 100 |
| CS(=O)c1cc(=O)c2ccccc2s1 (stereo not given) |  | 32.3 µM |  | 6.75 µM |  | 35.5 µM |  | 15.4 µM |  | 13.2 µM |  | 24.4 µM |  | 28.9 µM |  | 4.2 µM |  | 5.11 µM |  | 24.7 |
| C=C(C)[C@@H]1CC[C@]2(C(=O)OC)CC[C@]3(C)[C@H](CC[C@@H]4[C@@]5(C)CC/C(=N\OCCC(=NCCC#N)NOCCC#N)C(C)(C)[C@@H]5CC[C@]43C)[C@@H]12 | 12.6 µM | > 50 µM | 5.77 µM | > 50 µM | 5.43 | 15.5 µM | 7.59 µM | > 50 µM | 7.28 | 14.7 µM | 31.2 | > 50 µM | 2.26 | > 50 µM | 4.45 | > 50 µM | 2.89 µM | > 50 µM | 13.8 | > 50 |
| N=C(N)c1ccc(-c2ccc(-c3cccs3)s2)cc1F | 1.77 µM | 3.65 µM | 0.629 µM | 2.09 µM | 1.74 | 3.86 µM | 1.63 µM | 3.27 µM | 1.63 | 3.69 µM | 1.34 | 2.66 µM | 1.48 | 3.03 µM | 0.506 | 1.94 µM | 0.922 µM | 2.37 µM | 1.94 | 3.65 |
| CC1SC(c2ccc(OCc3ccccc3)cc2)N(NC(=O)C(O)(c2ccccc2)c2ccccc2)C1=O (stereo not given) | 5 µM | 21.5 µM | 2.74 µM | 12.7 µM | 3.79 | 15.8 µM | 2.7 µM | 13.8 µM | 3.95 | 13.8 µM | 3.72 | 18.1 µM | 2.08 | 6.85 µM | 3.61 | 12.7 µM | 1.76 µM | 4.71 µM | 4.36 | 18.8 |
| COC(=O)[C@@H](C)C[C@H](Cc1ccccc1)NC(=O)c1nc([C@@H](C[C@H](C(C)C)N(C)C(=O)[C@@H](NC(=O)[C@H]2CC(=O)CCN2C)C(C)C)OC(C)=O)sc1C(C)C | 0.183 µM | > 16.7 µM | 0.524 µM | > 16.7 µM | 0.415 | 2.95 µM | 0.456 µM | > 16.7 µM | 0.462 | > 16.7 µM | 0.0518 | > 15 µM | 0.129 | > 16.7 µM | 0.141 | > 16.7 µM | 0.169 µM | 3.04 µM | 0.104 | > 16.7 |
| CCN(CC)CCN1C(=O)c2cccc3cc(N)cc(c23)C1=O |  | > 100 µM |  | > 100 µM |  | 36.6 µM |  | 20.3 µM |  | 27.1 µM |  | 37.1 µM |  | > 100 µM |  | 83.3 µM |  | 38.5 µM |  | 37.6 |
| CC1(C)CC[C@]2(C(=O)O)CC[C@]3(C)C(=CC[C@@H]4[C@@]5(C)C/C(=C/c6cccnc6)[C@H](O)C(C)(C)[C@@H]5CC[C@]43C)[C@@H]2C1 | 5.55 µM | > 100 µM | 3.85 µM | 25.6 µM | 8.63 | 63 µM | 9.64 µM | > 100 µM | 4.7 | > 100 µM | 38.6 | > 100 µM | 2.66 | 72.4 µM | 5.34 | > 100 µM | 5.12 µM | 22.4 µM | 17 | 66.1 |
| O=C(/C=C/c1ccccc1)c1ccccn1 | 15.1 µM and 31.9 µM | 31 µM and > 100 µM |  | 24.9 µM and 50 µM |  | 37.5 µM and > 100 µM |  | 33.3 µM and 35.5 µM |  | 27.3 µM and 31.8 µM |  | 37.5 µM and 92.7 µM |  | 47.3 µM and 41.3 µM |  | 58.9 µM and > 100 µM | 6.9 µM and 15.4 µM | 19.4 µM and 30.3 µM |  | 43.8 |
| Nc1nc(N)c2nc(CNc3ccc(C(=O)NC(CCC(=O)O)C(=O)O)cc3)cnc2n1 (stereo not given) | 0.0634 µM and 0.0656 µM | > 100 µM | 0.0422 µM and < 0.01 µM | > 100 µM |  | > 100 µM | 0.0604 µM and 0.0213 µM | > 100 µM | < 0.01 | > 100 µM |  | > 100 µM | < 0.01 | > 100 µM | < 0.01 | > 100 µM | < 0.01 µM | > 100 µM | > 100 | > 100 |
